Laboratory results from PubChem BioAssay (NCI).
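Tested at 5 concentrations; 48 h exposure; 96-well plates; endpoints linearly interpolated, else capped at highest concentration. GI50 marks 50% less growth. The concentration for full growth arrest is given as TGI.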

Legend:
Experiment in all cases: growth of human tumour cells (NCI), 48 h
[1] = test system: UACC-257 melanoma
[2] = test system: ACHN renal
[3] = test system: T-47D breast
[4] = test system: RXF 393 renal
[5] = test system: OVCAR-5 ovarian
[6] = test system: BT-549 breast
[7] = test system: LOX IMVI melanoma
[8] = test system: SK-MEL-2 melanoma
[9] = test system: OVCAR-8 ovarian
[10] = test system: SF-539 CNS
[11] = test system: M14 melanoma
[12] = test system: NCI-H23 lung
[13] = test system: SNB-75 CNS
[14] = test system: A498 renal
[15] = test system: UO-31 renal
[16] = test system: PC-3 prostate
[17] = test system: SF-295 CNS
[18] = test system: K-562 leukemia
[19] = test system: DU-145 prostate
[20] = test system: HL-60(TB) leukemia
[21] = test system: OVCAR-3 ovarian
[22] = test system: HCC-2998 colon
[23] = test system: HT29 colon
[24] = test system: HCT-15 colon
[25] = test system: SK-MEL-5 melanoma
[26] = test system: HOP-92 NSCLC
[27] = test system: 786-0 renal
[28] = test system: TK-10 renal
[29] = test system: SN12C renal
[30] = test system: MCF7 breast
[31] = test system: NCI-H226 lung
[32] = test system: SK-MEL-28 melanoma
[33] = test system: MDA-MB-231 breast
[34] = test system: CCRF-CEM leukemia
[35] = test system: SF-268 CNS
[36] = test system: IGROV1 ovarian
[37] = test system: HOP-62 NSCLC
[38] = test system: RPMI-8226 leukemia
[39] = test system: HCT-116 colon
[40] = test system: MDA-MB-435
[41] = test system: CAKI-1 renal
[42] = test system: SNB-19 CNS
[43] = test system: KM12 colon
[44] = test system: MOLT-4 leukemia
[45] = test system: A549 NSCLC
[46] = test system: MALME-3M melanoma
[47] = test system: NCI-H522 lung
[48] = test system: UACC-62 melanoma
[49] = test system: EKVX NSCLC
[50] = test system: HS 578T breast
[51] = test system: MDA-MB-468 breast
[52] = test system: COLO 205 colon
[53] = test system: SK-OV-3 ovarian

## Cn1cc(-c2cc3nc(-c4cn(C)c5ncc(Br)cc45)cc(N)n3n2)c2cc(Cl)ccc21
[1]
  GI50: 1710 nM
  TGI: 3560 nM
[2]
  GI50: 1550 nM
  TGI: 2880 nM
[3]
  GI50: 1580 nM
  TGI: 3630 nM
[4]
  GI50: 1820 nM
  TGI: 3470 nM
[5]
  GI50: 1520 nM
  TGI: 3390 nM
[6]
  GI50: 1910 nM
  TGI: 4240 nM
[7]
  GI50: 1610 nM
  TGI: 2960 nM
[8]
  GI50: 1930 nM
  TGI: 4200 nM
[9]
  GI50: 2020 nM
  TGI: 4960 nM
[10]
  GI50: 1510 nM
  TGI: 2880 nM
[11]
  GI50: 1710 nM
  TGI: 3250 nM
[12]
  GI50: 1910 nM
  TGI: 3980 nM
[13]
  GI50: 1750 nM
  TGI: 4030 nM
[14]
  GI50: 7390 nM
  TGI: 24000 nM
[15]
  GI50: 1540 nM
  TGI: 3330 nM
[16]
  GI50: 1760 nM
  TGI: 4090 nM
[17]
  GI50: 1750 nM
  TGI: 3430 nM
[18]
  GI50: 1840 nM
  TGI: 5500 nM
[19]
  GI50: 1780 nM
  TGI: 3610 nM
[20]
  GI50: 1990 nM
  TGI: 5060 nM
[21]
  GI50: 1630 nM
  TGI: 3250 nM
[22]
  GI50: 1740 nM
  TGI: 3170 nM
[23]
  GI50: 1910 nM
  TGI: 3620 nM
[24]
  GI50: 1570 nM
  TGI: 3160 nM
[25]
  GI50: 1820 nM
  TGI: 4000 nM
[26]
  GI50: 1860 nM
  TGI: 3740 nM
[27]
  GI50: 1760 nM
  TGI: 3200 nM
[28]
  GI50: 1600 nM
  TGI: 3130 nM
[29]
  GI50: 1720 nM
  TGI: 3440 nM
[30]
  GI50: 1640 nM
  TGI: 3250 nM
[31]
  GI50: 1990 nM
  TGI: 4420 nM
[32]
  GI50: 1720 nM
  TGI: 3230 nM
[33]
  GI50: 1430 nM
  TGI: 2890 nM
[34]
  GI50: 2870 nM
  TGI: 9950 nM
[35]
  GI50: 2110 nM
  TGI: 5110 nM
[36]
  GI50: 1710 nM
  TGI: 3380 nM
[37]
  GI50: 1720 nM
  TGI: 3480 nM
[38]
  GI50: 2930 nM
  TGI: 9380 nM
[39]
  GI50: 1550 nM
  TGI: 2960 nM
[40]
  GI50: 1760 nM
  TGI: 3380 nM
[41]
  GI50: 1450 nM
  TGI: 2950 nM
[42]
  GI50: 1890 nM
  TGI: 3830 nM
[43]
  GI50: 1490 nM
  TGI: 3960 nM
[44]
  GI50: 1710 nM
  TGI: 5070 nM
[45]
  GI50: 1620 nM
  TGI: 3540 nM
[46]
  GI50: 1740 nM
  TGI: 3200 nM
[47]
  GI50: 1870 nM
  TGI: 3840 nM
[48]
  GI50: 1470 nM
  TGI: 2850 nM
[49]
  GI50: 1480 nM
  TGI: 3340 nM
[50]
  GI50: 1890 nM
  TGI: 4480 nM
[51]
  GI50: 1320 nM
  TGI: 2680 nM
[52]
  GI50: 2560 nM
  TGI: 6650 nM
[53]
  GI50: 13700 nM
  TGI: 29100 nM
